# According to US20100267561A1, “HERBICIDAL PYRIDAZINONE DERIVATIVES” (priority 2007, published 2010):
# Tests used:
# Assay in all cases: Test B pre-/postemergence plant response
# Format in all cases: in vivo
# [1] = system: Russian thistle (Salsola iberica); details: Preemergence
# Summary of the method: (§1)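 Visual scoring from 0 (no effect) to 100 (complete control) against untreated controls was done 13 to 15 days after greenhouse treatment. Chemicals were formulated in a surfactant-containing non-phytotoxic solvent and applied to soil preemergence or to 1- to 4-leaf (2-18 cm) plants postemergence.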
# [2] = system: bermudagrass (Cynodon dactylon); details: for Bermudagrass plant response rating: 8 g ai/ha
# Summary of the method: as §1
# [3] = system: blackgrass (Alopecurus myosuroides); details: for Blackgrass plant response rating: 8 g ai/ha
# Summary of the method: as §1
# [4] = system: catchweed bedstraw (Galium aparine); details: Preemergence
# Summary of the method: as §1
# [5] = system: cocklebur (Xanthium strumarium); details: for Cocklebur plant response rating: 8 g ai/ha
# Summary of the method: as §1
# corn (Zea mays) = details: for Corn plant response rating: 8 g ai/ha
# Summary of the method: as §1
# [6] = system: downy bromegrass (Bromus tectorum); details: for Bromegrass, Downy plant response rating: 8 g ai/ha
# Summary of the method: as §1
# kochia (Kochia scoparia) = system: kochia (Kochia scoparia)
# Summary of the method: as §1
# [7] = system: lambsquarters (Chenopodium album); details: for Lambsquarters plant response rating: 8 g ai/ha
# Summary of the method: as §1
# [8] = system: morningglory (Ipomoea coccinea); details: for Morningglory plant response rating: 8 g ai/ha
# Summary of the method: as §1
# soybean (Glycine max) = details: for Plant response rating, Soybean: Postemergence
# Summary of the method: as §1
# [9] = system: surinam grass (Brachiaria decumbens); details: for Surinam Grass plant response rating: 8 g ai/ha
# Summary of the method: as §1
# [10] = system: wheat (Triticum aestivum); details: for Wheat plant response rating: 8 g ai/ha
# Summary of the method: as §1
# [11] = system: yellow nutsedge (Cyperus esculentus); details: for Nutsedge, Yellow plant response rating: 8 g ai/ha
# Summary of the method: as §1
# [12] = 16 g ai/ha, scale 0 to 100 (0 no effect, 100 complete control)
# [13] = 31 g ai/ha, 0 to 100 scale, 0 no effect, 100 complete control
# [14] = Postemergence, 16 g ai/ha, scale 0 to 100
# [15] = Postemergence, 31 g ai/ha, scale 0 to 100, 0 no effect, 100 complete control
# [16] = Postemergence, 62 g ai/ha, scale 0 to 100
# [17] = Preemergence, 16 g ai/ha, scale 0 to 100 (0 no effect, 100 complete control)
# [18] = Preemergence, 31 g ai/ha, 0 to 100 scale, 0 no effect, 100 complete control
# [19] = Preemergence, 62 g ai/ha, scale 0 to 100
# [20] = 8 g ai/ha, postemergence, 0-100 scale
compound,measurement,setting,value
CCc1cc(-c2ccc(Cl)c(Cl)c2)nn1-c1c(O)cnn(C)c1=O [Compound 20],"Plant response rating, Russian Thistle",[1]; [12],0
same,"Plant response rating, Russian Thistle",[1]; [13],0
same,"Plant response rating, Russian Thistle","[1]; 62 g ai/ha, scale 0 to 100",0
same,Bermudagrass plant response rating,"[2]; postemergence, 0-100 scale",0
same,"Plant response rating, Bermudagrass",[2]; [14],0
same,"Plant response rating, Bermudagrass",[2]; [15],0
same,"Plant response rating, Bermudagrass",[2]; [16],0
same,Bermudagrass plant response rating,"[2]; Preemergence, scale 0 to 100 (0 no effect, 100 complete control)",0
same,"Plant response rating, Bermudagrass",[2]; [17],0
same,"Plant response rating, Bermudagrass",[2]; [18],0
same,"Plant response rating, Bermudagrass",[2]; [19],70
same,Blackgrass plant response rating,"[3]; postemergence, 0-100 scale",30
same,"Plant response rating, Blackgrass",[3]; [14],50
same,"Plant response rating, Blackgrass",[3]; [16],60
same,"Plant response rating, Blackgrass",[3]; [18],90
same,"Plant response rating, Blackgrass",[3]; [19],90
same,Blackgrass plant response rating,"[3]; Preemergence, scale 0 to 100",10
same,"Plant response rating, Galium",[4]; [12],0
same,"Plant response rating, Galium",[4]; [13],50
same,"Plant response rating, Galium","[4]; 62 g ai/ha, scale 0 to 100",100
same,Galium plant response rating,"[4]; 8 g ai/ha, scale 0 to 100",0
same,Cocklebur plant response rating,"[5]; postemergence, 0-100 scale",0
same,"Plant response rating, Cocklebur",[5]; [14],0
same,"Plant response rating, Cocklebur",[5]; [15],0
same,"Plant response rating, Cocklebur",[5]; [16],0
same,"Plant response rating, Cocklebur",[5]; [17],0
same,"Plant response rating, Cocklebur",[5]; [18],0
same,"Plant response rating, Cocklebur",[5]; [19],0
same,Cocklebur plant response rating,"[5]; Preemergence, scale 0 to 100",0
same,Corn plant response rating,"corn (Zea mays); postemergence, 0-100 scale",0
same,"Plant response rating, Corn",corn (Zea mays); [14],90
same,"Plant response rating, Corn",corn (Zea mays); [15],95
same,"Plant response rating, Corn",corn (Zea mays); [17],5
same,"Plant response rating, Corn",corn (Zea mays); [18],80
same,"Plant response rating, Corn",corn (Zea mays); [19],95
same,Corn plant response rating,"corn (Zea mays); Preemergence, scale 0 to 100",0
same,"Bromegrass, Downy plant response rating","[6]; postemergence, 0-100 scale",0
same,"Plant response rating, Bromegrass, Downy",[6]; [14],0
same,"Plant response rating, Bromegrass, Downy",[6]; [15],40
same,"Plant response rating, Bromegrass, Downy",[6]; [16],50
same,"Plant response rating, Bromegrass, Downy",[6]; [17],0
same,"Plant response rating, Bromegrass, Downy",[6]; [18],0
same,"Plant response rating, Bromegrass, Downy",[6]; [19],0
same,"Bromegrass, Downy plant response rating","[6]; Preemergence, scale 0 to 100",0
same,Kochia plant response rating,kochia (Kochia scoparia); [20],0
same,"Plant response rating, Kochia",kochia (Kochia scoparia); [14],0
same,"Plant response rating, Kochia",kochia (Kochia scoparia); [15],0
same,"Plant response rating, Kochia",kochia (Kochia scoparia); [16],0
same,"Plant response rating, Kochia",kochia (Kochia scoparia); [17],0
same,"Plant response rating, Kochia",kochia (Kochia scoparia); [18],0
same,"Plant response rating, Kochia",kochia (Kochia scoparia); [19],0
same,Lambsquarters plant response rating,"[7]; postemergence, 0-100 scale",0
same,"Plant response rating, Lambsquarters",[7]; [14],0
same,"Plant response rating, Lambsquarters",[7]; [15],0
same,"Plant response rating, Lambsquarters",[7]; [16],40
same,"Plant response rating, Lambsquarters",[7]; [17],20
same,"Plant response rating, Lambsquarters",[7]; [18],100
same,"Plant response rating, Lambsquarters",[7]; [19],100
same,Lambsquarters plant response rating,"[7]; Preemergence, scale 0 to 100",0
same,Morningglory plant response rating,"[8]; postemergence, 0-100 scale",0
same,"Plant response rating, Morningglory",[8]; [14],0
same,"Plant response rating, Morningglory",[8]; [15],0
same,"Plant response rating, Morningglory",[8]; [16],0
same,"Plant response rating, Morningglory",[8]; [17],0
same,"Plant response rating, Morningglory",[8]; [18],0
same,"Plant response rating, Morningglory",[8]; [19],0
same,Morningglory plant response rating,"[8]; Preemergence, scale 0 to 100",0
same,Soybean plant response rating,soybean (Glycine max); [20],0
same,"Plant response rating, Soybean","soybean (Glycine max); 16 g ai/ha, scale 0 to 100",0
same,"Plant response rating, Soybean","soybean (Glycine max); 31 g ai/ha, scale 0 to 100, 0 no effect, 100 complete control",0
same,"Plant response rating, Soybean","soybean (Glycine max); 62 g ai/ha, scale 0 to 100",0
same,Surinam Grass plant response rating,"[9]; postemergence, 0-100 scale",60
same,"Plant response rating, Surinam Grass",[9]; [14],90
same,"Plant response rating, Surinam Grass",[9]; [15],90
same,"Plant response rating, Surinam Grass",[9]; [16],100
same,"Plant response rating, Surinam Grass",[9]; [17],20
same,"Plant response rating, Surinam Grass",[9]; [18],50
same,"Plant response rating, Surinam Grass",[9]; [19],100
same,Surinam Grass plant response rating,"[9]; Preemergence, scale 0 to 100",0
same,Wheat plant response rating,"[10]; postemergence, 0-100 scale",0
same,"Plant response rating, Wheat",[10]; [14],20
same,"Plant response rating, Wheat",[10]; [15],20
same,"Plant response rating, Wheat",[10]; [16],60
same,"Plant response rating, Wheat",[10]; [17],0
same,"Plant response rating, Wheat",[10]; [18],0
same,"Plant response rating, Wheat",[10]; [19],0
same,Wheat plant response rating,"[10]; Preemergence, scale 0 to 100",0
same,"Nutsedge, Yellow plant response rating","[11]; postemergence, 0-100 scale",0
same,"Plant response rating, Nutsedge, Yellow",[11]; [14],0
same,"Plant response rating, Nutsedge, Yellow",[11]; [15],0
same,"Plant response rating, Nutsedge, Yellow",[11]; [16],0
same,"Plant response rating, Nutsedge, Yellow",[11]; [18],0
same,"Plant response rating, Nutsedge, Yellow",[11]; [19],0
same,"Nutsedge, Yellow plant response rating","[11]; Preemergence, scale 0 to 100",0
